22 compounds from US7713994B2 (Wyeth LLC, priority 2005, dated 2010) can be followed below.

This assay concerns the target T1, IGF1-receptor kinase (Homo sapiens, UniProt P08069).
T1 construct: Purified GST-IGFR; purified Bis-IGFR and Tris-IGFR; fused on or other part: GST with a thrombin cleavage site, removed in the Bis-IGFR and Tris-IGFR forms
Kind of assay: IGF1-R kinase assay (96-well FRET Lance). Format: biochemical. The following applies: for inhibition at 10 µM / Igfr % Inhibition at 10 uM: 10 uM compound; for inhibition at 10 µM: read-out: Igfr % Inhibition at 10 uM; for pIC50: 100 micromolar ATP, read-out: Igfr ic50. From the text:
• TITLE: 96-well assay for inhibitors of IGF1-receptor kinase activity • SHORT TITLE: IGF1-R kinase assay • PURPOSE: Identify inhibitors of IGF-1 receptor kinase activity • MATERIALS AND METHODS: Overview: This is a 96-well FRET (Lance) tyrosine kinase assay. • Materials: • Purified GST-IGFR; purified Bis-IGFR and Tris-IGFR; expressed in ExpresSF insect cells. Bis and Tris IGFR are made by phosphorylating the IGFR in the presence of ATP and Mg2+, followed by thrombin cleavage to remove the GST-thrombin cleavage site, and purification by HPLC. The Bis and tris IGFR are phosphorylated on two (bis) or all three tyrosines (tris) in the activation loop. • Biotinylated peptide with a sequence corresponding to the sequence surrounding the autophosphorylation sites in IGF1-R Biotin-NH2-[…]-OH (Anaspec) • Europium-conjugated phosphotyrosine antibody (PT66) (Perkin-Elmer). • Surelight APC (Perkin-elmer) • Plates: 96-well Assay plates (polypropylene plates, natural color) • 96-well-Lance plates (Microfluor 2 black plates; Cat # 7205; Thermolabsystems. • ATP: (Amersham Pharmacia Cat # 27-2056-01), 100 mM stock. • IGFR Lance Protocol (96-well format) • Procedure: • Reagents: • Kinase Buffer (10×): • 0.5 M Hepes, pH 7.5 rt • 0.1 M MgCl2 • Quench Buffer (to be added straight, 1:1, to r×n mix): • 50 mM Hepes, pH 7.5 rt • 50 mM EDTA • Lance Detection Buffer: • 20 mM Tris-HCl, pH 7.5 rt • 0.15 M NaCl-150 • 150 ug/ml BSA (Sigma Cat# A-7284) • Eu-labeled phosphotyrosine antibody PT66 (Perkin-Elmer): 1:4000 dilution of 200 μg/ml stock • Streptavidin-APC (Perkin Elmer): 1/250 (4 microgram/ml final) • ATP (Amersham Pharmacia cat #27-2056-01) 100 mM stock: Dilute to 1 mM (10×) in water. […] Transfer 12.5[…] of the kinase reaction to the antibody detection plate. Allow antibody to react for 1 h at rt in the dark. Then read in Victor with an excitation filter of 340 nm and an emission filter of 665 nm. • Compound additions: • When Example compounds are tested, they are added from a 10% DMSO/50 mM Hepes (pH 7.5) 10× stock. 5 microliters of compound in this buffer are added to the enzyme-peptide-buffer mix. After 10′ incubation at room temperature, ATP is added to start the reaction. A no ATP background control is included in the assay. • […] OF RESULTS: Data are analyzed as follows: % Inhibition={[Sample cpm−Bkg cpm]/[No cmpd cpm−Bkg cpm]}×100%. The biological activity of representative Examples of the invention is reported in Table VII as: 0.2 µM≦x≦10 µM or % inhibition@10 µM.

pIC50: −log10 of the molar value.

T1 sequence (P08069 999-1274 limits assumed): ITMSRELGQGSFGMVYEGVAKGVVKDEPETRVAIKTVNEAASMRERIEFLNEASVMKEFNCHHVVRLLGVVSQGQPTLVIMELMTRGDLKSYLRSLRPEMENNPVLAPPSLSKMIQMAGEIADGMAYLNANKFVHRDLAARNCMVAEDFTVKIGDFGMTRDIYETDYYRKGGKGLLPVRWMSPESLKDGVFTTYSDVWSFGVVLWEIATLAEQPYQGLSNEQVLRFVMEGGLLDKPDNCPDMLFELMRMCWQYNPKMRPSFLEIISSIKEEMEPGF

`Nc1cccc(Nc2ccc3c(c2)/C(=C/Nc2ccc(CN4CCCCC4)cc2)C(=O)NC3=O)c1` [Example 883, (4Z)-6-[(3-aminophenyl)amino]-4-({[4-(piperidin-1-ylmethyl)phenyl]amino}methylene)isoquinoline-1,3(2H,4H)-dione]: the inhibition at 10 µM was found to be 33%.
For the compound `O=C1NC(=O)c2ccc(Nc3ccccc3)cc2/C1=C/Nc1ccc(CN2CCCCC2)cc1` [Example 887, (4Z)-6-anilino-4-({[4-(piperidin-1-ylmethyl)phenyl]amino}methylene)isoquinoline-1,3(2H,4H)-dione], the pIC50 is 6.68.
Consider `O=C1NC(=O)c2ccc(Nc3cccc(Cl)c3)cc2/C1=C/Nc1ccc(CN2CCCCC2)cc1` [Example 905], for which the pIC50 is 5.58.
On the same count and under the same terms, with `O=C1NC(=O)c2ccc(Nc3ccccc3Cl)cc2/C1=C/Nc1ccc(CN2CCCCC2)cc1` [Example 904, (4Z)-6-[(2-chlorophenyl)amino]-4-({[4-(piperidin-1-ylmethyl)phenyl]amino}methylene)isoquinoline-1,3-(2H,4H)-dione] the figure was 5.77.
`O=C1NC(=O)c2ccc(Nc3ccc4c(c3)OCO4)cc2/C1=C/Nc1ccc(CN2CCCCC2)cc1` [Example 896, (4Z)-6-(1,3-benzodioxol-5-ylamino)-4-({[4-(piperidin-1-ylmethyl)phenyl]amino}methylene)isoquinoline-1,3(2H,4H)-dione]: the pIC50 was 6.08.
With `COc1cc(Nc2ccc3c(c2)/C(=C/Nc2ccc(CN4CCCCC4)cc2)C(=O)NC3=O)cc(C(F)(F)F)c1` [Example 900], the “Igfr % Inhibition at 10 uM” value was 20%.
On to `Cc1cccc(Nc2ccc3c(c2)/C(=C/Nc2ccc(CN4CCCCC4)cc2)C(=O)NC3=O)c1` [Example 884, (4Z)-6-[(3-methylphenyl)amino]-4-({[4-(piperidin-1-ylmethyl)phenyl]amino}methylene)isoquinoline-1,3(2H,4H)-dione], for which the inhibition at 10 µM was determined as 20%.
With `CN(C)Cc1ccc(N/C=C2\C(=O)NC(=O)c3ccc(Nc4ccccc4)cc32)cc1` [Example 906, (4Z)-6-anilino-4-[({4-[(dimethylamino)methyl]phenyl}amino)methylene]isoquinoline-1,3(2H,4H)-dione], the pIC50 is 6.04.
In the case of `CCOC(=O)c1ccc(Nc2ccc3c(c2)/C(=C/Nc2ccc(CN4CCCCC4)cc2)C(=O)NC3=O)cc1` [Example 903, ethyl 4-{[(4Z)-1,3-dioxo-4-({[4-(piperidin-1-ylmethyl)phenyl]amino}methylene)-1,2,3,4-tetrahydroisoquinolin-6-yl]amino}benzoate], the inhibition at 10 µM stood at 45%.
As for `O=C1NC(=O)c2ccc(Nc3ccc4c(c3)CCC4)cc2/C1=C/Nc1ccc(CN2CCCCC2)cc1` [Example 895, (4Z)-6-(2,3-dihydro-1H-inden-5-ylamino)-4-({[4-(piperidin-1-ylmethyl)phenyl]amino}methylene)isoquinoline-1,3(2H,4H)-dione], the pIC50 is 5.14.
Still for that read-out and setting: with `N#Cc1ccc(Nc2ccc3c(c2)/C(=C/Nc2ccc(CN4CCCCC4)cc2)C(=O)NC3=O)cc1` [Example 897, 4-{[(4Z)-1,3-dioxo-4-({[4-(piperidin-1-ylmethyl)phenyl]amino}methylene)-1,2,3,4-tetrahydroisoquinolin-6-yl]amino}benzonitrile] the figure was 5.82; with `CCN(CC)Cc1ccc(N/C=C2\C(=O)NC(=O)c3ccc(Nc4ccc(C)cc4)cc32)cc1` [Example 911, (4Z)-4-[({4-[(diethylamino)methyl]phenyl}amino)methylene]-6-[(4-methylphenyl)amino]isoquinoline-1,3(2H,4H)-dione], 5.94; with `O=C1NC(=O)c2ccc(Nc3cccc4ncccc34)cc2/C1=C/Nc1ccc(CN2CCCCC2)cc1` [Example 913, (4Z)-4-({[4-(piperidin-1-ylmethyl)phenyl]amino}methylene)-6-(quinolin-5-ylamino)isoquinoline-1,3(2H,4H)-dione], 5.21.
Take `O=C1NC(=O)c2ccc(Nc3ccc4[nH]ccc4c3)cc2/C1=C/Nc1ccc(CN2CCCCC2)cc1` [Example 912]: the “Igfr % Inhibition at 10 uM” value came out at 9%.
As for `O=C1NC(=O)c2ccc(Nc3ccc(Cl)cc3)cc2/C1=C/Nc1ccc(CN2CCCCC2)cc1` [Example 890, (4Z)-6-[(4-chlorophenyl)amino]-4-({[4-(piperidin-1-ylmethyl)phenyl]amino}methylene)isoquinoline-1,3(2H,4H)-dione], the inhibition at 10 µM came to 47%.
Regarding `O=C1NC(=O)c2ccc(Nc3cccc(F)c3)cc2/C1=C/Nc1ccc(CN2CCCCC2)cc1` [Example 899, (4Z)-6-[(3-fluorophenyl)amino]-4-({[4-(piperidin-1-ylmethyl)phenyl]amino}methylene)isoquinoline-1,3(2H,4H)-dione], the pIC50 was 5.51.
On the same count and under the same terms, with `COc1ccc(Nc2ccc3c(c2)/C(=C/Nc2ccc(CN4CCCCC4)cc2)C(=O)NC3=O)cc1` [Example 898, (4Z)-6-[(4-methoxyphenyl)amino]-4-({[4-(piperidin-1-ylmethyl)phenyl]amino}methylene)isoquinoline-1,3(2H,4H)-dione] the figure was 6.06; with `N#Cc1cccc(Nc2ccc3c(c2)/C(=C/Nc2ccc(CN4CCCCC4)cc2)C(=O)NC3=O)c1` [Example 893, 3-{[(4Z)-1,3-dioxo-4-({[4-(piperidin-1-ylmethyl)phenyl]amino}methylene)-1,2,3,4-tetrahydroisoquinolin-6-yl]amino}benzonitrile], 6.15; with `N#Cc1ccccc1Nc1ccc2c(c1)/C(=C/Nc1ccc(CN3CCCCC3)cc1)C(=O)NC2=O` [Example 902, 2-{[(4Z)-1,3-dioxo-4-({[4-(piperidin-1-ylmethyl)phenyl]amino}methylene)-1,2,3,4-tetrahydroisoquinolin-6-yl]amino}benzonitrile], 5.43.
`CN(C)c1ccc(Nc2ccc3c(c2)/C(=C/Nc2ccc(CN4CCCCC4)cc2)C(=O)NC3=O)cc1` [Example 888, (4Z)-6-{[4-(dimethylamino)phenyl]amino}-4-({[4-(piperidin-1-ylmethyl)phenyl]amino}methylene)isoquinoline-1,3(2H,4H)-dione]: the inhibition at 10 µM was found to be 14%.
For the compound `Cc1ccc(Nc2ccc3c(c2)/C(=C/Nc2ccc(CN4CCCCC4)cc2)C(=O)NC3=O)cc1` [Example 889, (4Z)-6-[(4-methylphenyl)amino]-4-({[4-(piperidin-1-ylmethyl)phenyl]amino}methylene)isoquinoline-1,3(2H,4H)-dione], the pIC50 is 6.40.
Consider `COc1cccc(Nc2ccc3c(c2)/C(=C/Nc2ccc(CN(C)C)cc2)C(=O)NC3=O)c1` [Example 907, (4Z)-4-[({4-[(dimethylamino)methyl]phenyl}amino)methylene]-6-[(3-methoxyphenyl)amino]isoquinoline-1,3(2H,4H)-dione], for which the pIC50 was 5.86.
